Bridges are numbered along the chain shown (N, C = ends). Where no end group is shown, it is not given here.
Legend:
[1] = test system: F-actin in NIH/3T3 fibroblasts; assay: F-actin staining; type: cell-based, mouse; settings: 48 h, TGF-β1 10 ng/mL, AF38Pep 10 µg/mL
Protocol: Cells were grown to 40% confluence in 8-well glass chamber slides (Nunc, Thermo Fisher Scientific), prior to growth arrest and treatment. Cells were washed with PBS before fixation in 4% paraformaldehyde for 10 min at room temperature. Next, cells were permeabilized with 0.1% (v/v) Triton X-100 in PBS for 10 min at room temperature. For visualization of ECM, cells were fixed with 100% ice-cold methanol for 8 min at −20 °C. Slides were washed with PBS and blocked with 1% goat serum (TBD Science, Tianjin, China) for 30 min before washing with 0.1% (w/v) BSA in PBS. Subsequently, slides were incubated with monoclonal mouse anti-α-SMA antibody (Sigma-Aldrich, 1:50) diluted in 0.1% BSA-PBS, overnight at 4 °C. After further wash steps, slides were incubated with goat anti-mouse IgG CF-488 secondary antibody (Abcam, 1:1000) in 0.1% BSA-PBS for 1 h at room temperature and under darkness. For F-actin visualization, after fixation and permeabilization; cells were incubated with phalloidin conjugated to FITC (Sigma-Aldrich) in 0.1% BSA-PBS, overnight at 4 °C. Cells were then mounted in DAPI Fluoromount-G (Thermo Fisher Scientific) and imaged using a Zeiss Axio Imager Z1 UV fluorescence microscope (Zeiss, Jena, Germany) and a Leica TCS SP5 laser scanning confocal microscope (Leica Biosystems, Baden-Württemberg, Germany).

[2] = test system: Eda-Fn1 mRNA; assay: qRT-PCR Eda-Fn1 mRNA; type: cell-based, mouse
Protocol: (§1) Reverse transcription (RT) and real-time quantitative PCR (qRT-PCR) were used to assess ACTA2/Acta2, Col1a1, Col3a1, Fn1, Eda-Fn1, Mmp9, Tgfb1, Ltbp1, Hic5, and Mrtfa mRNA expressions. Custom PCR primers were designed in-house (Table 2) and then synthesized by BGI (Beijing, China). Cells were grown in 6-well culture plates and washed with phosphate buffered saline (PBS) before lysis with TRIzon Reagent (CWBio, Beijing, China) and total RNA purification according to the manufacturer’s protocol. Reverse transcription was carried using the TransScript First-Strand cDNA Synthesis SuperMix kit according to the manufacturer’s protocol (TransGen, Beijing, China), using the random primer method for the initiation of cDNA synthesis. Nuclease-free H2O replaced the RNA sample to serve as a negative control for the reverse transcription reaction. For qRT-PCR, 10 µL 2× TransStart Top Green qPCR SuperMix was added to each well of a 96-well PCR plate containing 0.4 µL forward primer, 0.4 µL reverse primer, […], and nuclease-free water to a total volume of 20 µL. The qRT-PCR reaction was completed using a CFX96 Real-Time PCR Detection System (Bio-Rad Laboratories, Hercules, CA, USA). Amplification used the following parameters: 94 °C for 30 s, followed by 40 cycles of 94 °C for 5 s, 55 °C for 15 s, 72 °C for 10 s, and then a dissociation stage (melt-curve). […]

[3] = test system: osteopontin (OPN); assay: Western blot total protein OPN; type: cell-based; settings: 48 h, TGF-β1+AF38Pep
[4] = test system: human HFL1 lung fibroblast cells; assay: Cytotoxicity/proliferation assay (CCK-8) HFL1; type: cell-based; settings: TGF-β1 stimulated HFL1, over 72 h
Protocol: HFL1 cells were cultured in Kaighn’s modified Ham’s F-12 (F-12K) medium (Sigma-Aldrich) containing NaHCO3 and HEPES buffered to pH 7. Cells were grown to confluence in T75 culture flasks in the presence of 10% fetal bovine serum (FBS; Gibco, Thermo Fisher Scientific, Waltham, MA, USA). HFL1 cells were subcultured using 0.05% trypsin at a ratio of 1:3. NIH/3T3 cells were cultured in Dulbecco’s Modified Eagle Medium (DMEM; HyClone, Thermo Fisher Scientific) containing 100 U/mL penicillin and 100 μg/mL streptomycin. Cells were grown to confluence in T75 culture flasks in the presence of 10% FBS. NIH/3T3 cells were subcultured using 0.05% trypsin/EDTA at a ratio of 1:3. All cells were maintained at 37 °C and 5% CO2, and growth medium was replenished every 3 days until experimentation. Cells were growth-arrested in serum-free medium for 48 h before experiments, and all experiments were performed under serum-free conditions using cells between passages 3 and 8.
Cells were seeded into 12-well culture plates at a density of 2.5 × 10^4 and when cultures reached 50% confluence, the culture medium was replaced with fresh serum-free F12K or serum-free DMEM/F12 for 48 h (growth arrest). […] Absorbance was measured at 450 nm wavelength using a Bio-Rad optical plate reader.

[5] = test system: pro-MMP2; assay: Gelatinase zymography pro-MMP2; type: cell-based, mouse; settings: 48 h, TGF-β1 10 ng/mL, AF38Pep 10 µg/mL, conditioned medium
Protocol: (§2) Conditioned media were collected from cells incubated with serum-free medium (SFM) alone, SFM containing 10 ng/mL TGF-β1, SFM containing 10 µg/mL AF38Pep, or SFM containing both 10 ng/mL TGF-β1 and 10 µg/mL AF38Pep. Conditioned medium was concentrated 10× by filtrating spin columns (Amicon Ultra-4 10 kDa MWCO, Merck Millipore) and protein was quantified by Micro BCA Protein Assay Kit (Thermo Fisher Scientific). A 1.5 mm thick 10% nonreducing acrylamide gel containing gelatin was prepared and 10 µg of sample in 5 × nonreducing buffer was loaded into the gel lanes. The gel was run at 100 V until the protein entered the stacking gel layer, then the voltage was increased to 150 V until the marker achieved resolved band separation. The gels were then washed twice for 30 min using wash buffer to remove SDS and renature the enzymes. Gels were further rinsed for 5–10 min in incubation buffer at 37 °C with agitation to activate the gelatinase reaction. Fresh incubation buffer was added, and the gels were incubated overnight at 37 °C. Gels were stained with staining solution containing Coomassie blue for between 30 min to 1 h, before rinsing with ddH2O and subsequent incubation with de-stain solution until bands could be observed. The gels were transferred to 2% acetic acid and rehydrated overnight for imaging by scanner.

[6] = test system: pro-MMP9; assay: Gelatinase zymography pro-MMP9; type: cell-based, mouse; settings: 48 h, TGF-β1 10 ng/mL, AF38Pep 10 µg/mL, conditioned medium
Protocol: as §2

[7] = test system: Fn1 mRNA; assay: qRT-PCR Fn1 mRNA; type: cell-based, mouse
Protocol: as §1

In the case of “VMPYISTTPAKPCTSENCGNSWYGGFKSKNENKIYFIN (disulfide 13-18 (inferred)) [AF38Pep]”, the F-actin fiber assembly [1] is reported as “cellular actin reassembly into F-actin fibers still occurred”, the “EDA-FN splice variant mRNA expression” value ([2]; 72 h, TGF-β1 + AF38Pep) is reported as “all inhibited” and the “EDA-FN splice variant mRNA expression” value ([2]; by 48 h, vs TGF-β1-only) is reported as “significant attenuation”. The OPN protein expression [3] was “significantly attenuated”, the cytotoxicity/proliferation [4] was “not detrimental to cell numbers” and the pro-MMP2 gelatinase activity [5] was “suppressed activity levels”. The pro-MMP9 gelatinase activity [6] was “suppressed activity levels”, the “fibronectin mRNA expression” value ([7]; 72 h, TGF-β1 + AF38Pep) was “all inhibited” and the “fibronectin mRNA expression” value ([7]; by 48 h, vs TGF-β1-only) was “significant attenuation”.

Source: PMC7913925, “Design and Evaluation of a Polypeptide That Mimics the Integrin Binding Site for EDA Fibronectin to Block Profibrotic Cell Activity” (International Journal of Molecular Sciences, 2021)
